Source: paper PMC5243837, “The Effect of Selective D- or N^α-Methyl Arginine Substitution on the Activity of the Proline-Rich Antimicrobial Peptide, Chex1-Arg20” (Frontiers in Chemistry, 2017)
Like-named read-outs stand apart in the source and are kept apart here. Where a SMILES comes first, the peptide text is derived from it. [ ]: non-standard residue; d: D form. NMeR = CN[C@@H](CCCNC(=N)N)C(=O)O; Ac6c = NC1(C(=O)O)CCCCC1; Chex = not defined here

Columns and labels:
K. pneumoniae ATCC 13883 [1] = assay type: cell-based, Klebsiella pneumoniae; details: for Antibacterial activity, MIC: ATCC 13883; for Antibacterial activity against K. pneumoniae (in words): K. pneumoniae ATCC 13883 in MHB, compared with analog 1, Chex1-Arg20
Method: An antibacterial assay was undertaken to determine the minimal inhibitory concentration (MIC) as described previously (Li et al., [2015b]). The Gram-negative nosocomial bacterium, K. pneumoniae ATCC13883, was selected for testing the antibacterial activities of the Chex1-Arg20 analogs using 2.5 × 10^5 cells/ml in Mueller Hinton broth (MHB) at 37°C immediately prior to the determination of MIC.
Each Chex1-Arg20 analog was assayed against the nosocomial Gram-negative bacterium K. pneumoniae ATCC 13883. The results are shown in Table 2 in comparison with analog 1, Chex1-Arg20. […] This highlighted the importance of arginine-7 and its native L-configuration for characteristic antimicrobial activity.

[2] = cited from earlier work
K. pneumoniae ATCC 13883 [3] = details: previously reported, ref Li et al., 2015b; cited from earlier work
Description: Table 2 Antibacterial activity, MIC (μM), of Chex1-Arg20 analogs against Gram-negative pathogen K. pneumoniae ATCC 13883. | column: 1^^*

Compound	Antibacterial activity, MIC (K. pneumoniae ATCC 13883 [1]) [µM]	Antibacterial activity against K. pneumoniae (in words) (K. pneumoniae ATCC 13883 [1])	Degradation sites in vivo [2]	Antibacterial activity, MIC (K. pneumoniae ATCC 13883 [3]) [µM]
CC(C)C[C@H](NC(=O)[C@H](Cc1ccc(O)cc1)NC(=O)[C@@H]1CCCN1C(=O)[C@@H](CCCNC(=N)N)NC(=O)[C@@H]1CCCN1C(=O)[C@H](CCCCN)NC(=O)[C@H](CC(=O)O)NC(=O)[C@@H]1CCCN1C(=O)[C@H](CCCNC(=N)N)NC(=O)C1(N)CCCCC1)C(=O)N1CCC[C@H]1C(=O)N[C@@H](CCCNC(=N)N)C(=O)N1CCC[C@H]1C(=O)N[C@@H](CCCNC(=N)N)C(=O)N1CCC[C@H]1C(=O)N1CCC[C@H]1C(=O)N[C@@H](CCCNC(=N)N)C(=O)N1CCC[C@H]1C(=O)N[C@H](C(=O)N[C@@H](CCCNC(=N)N)C(N)=O)C(C)C [analog 2, DR7] (H-[Ac6c]RPDKP[dR]PYLPRPRPPRPVR-NH2; N-terminus assumed)	>100	substantial loss of activity		
CC(C)C[C@H](NC(=O)[C@H](Cc1ccc(O)cc1)NC(=O)[C@@H]1CCCN1C(=O)[C@H](N)CCCNC(=N)N)C(=O)N1CCC[C@H]1C(=O)N[C@@H](CCCNC(=N)N)C(=O)N1CCC[C@H]1C(=O)N[C@@H](CCCNC(=N)N)C(=O)N1CCC[C@H]1C(=O)N1CCC[C@H]1C(=O)N[C@@H](CCCNC(=N)N)C(=O)N1CCC[C@H]1C(=O)N[C@H](C(N)=O)C(C)C [analog 4, DR7(7–19)] (H-[dR]PYLPRPRPPRPV-NH2; N-terminus assumed)	>100	no antibacterial activity		
CC(C)C[C@H](NC(=O)[C@H](Cc1ccc(O)cc1)NC(=O)[C@@H]1CCCN1C(=O)[C@@H](CCCNC(=N)N)NC(=O)[C@@H]1CCCN1C(=O)[C@H](CCCCN)NC(=O)[C@H](CC(=O)O)NC(=O)[C@@H]1CCCN1C(=O)[C@H](CCCNC(=N)N)NC(=O)C1(N)CCCCC1)C(=O)N1CCC[C@H]1C(=O)N[C@@H](CCCNC(=N)N)C(=O)N1CCC[C@H]1C(=O)N[C@@H](CCCNC(=N)N)C(=O)N1CCC[C@H]1C(=O)N1CCC[C@H]1C(=O)N[C@@H](CCCNC(=N)N)C(=O)N1CCC[C@H]1C(=O)N[C@H](C(N)=O)C(C)C [analog 5, Chex1-Val19] (H-[Ac6c]RPDKP[dR]PYLPRPRPPRPV-NH2; N-terminus assumed)	36.1 ± 0.6	partially restored activity		
CC(C)C[C@H](NC(=O)[C@H](Cc1ccc(O)cc1)NC(=O)[C@@H]1CCCN1C(=O)[C@H](CCCNC(=N)N)NC(=O)[C@@H]1CCCN1C(=O)[C@H](CCCCN)NC(=O)[C@H](CC(=O)O)NC(=O)[C@@H]1CCCN1C(=O)[C@H](CCCNC(=N)N)NC(=O)C1(N)CCCCC1)C(=O)N1CCC[C@H]1C(=O)N[C@@H](CCCNC(=N)N)C(=O)N1CCC[C@H]1C(=O)N[C@@H](CCCNC(=N)N)C(=O)N1CCC[C@H]1C(=O)N1CCC[C@H]1C(=O)N[C@@H](CCCNC(=N)N)C(=O)N1CCC[C@H]1C(=O)N[C@H](C(=O)N[C@H](CCCNC(=N)N)C(N)=O)C(C)C [analog 6, DR20] (H-[Ac6c]RPDKPRPYLPRPRPPRPV[dR]-NH2; N-terminus assumed)	11.8 ± 0.1			
CC(C)C[C@H](NC(=O)[C@H](Cc1ccc(O)cc1)NC(=O)[C@@H]1CCCN1C(=O)[C@H](CCCNC(=N)N)NC(=O)[C@@H]1CCCN1C(=O)[C@H](CCCCN)NC(=O)[C@H](CC(=O)O)NC(=O)[C@@H]1CCCN1C(=O)[C@H](CCCNC(=N)N)NC(=O)C1(N)CCCCC1)C(=O)N1CCC[C@H]1C(=O)N[C@@H](CCCNC(=N)N)C(=O)N1CCC[C@H]1C(=O)N[C@@H](CCCNC(=N)N)C(=O)N1CCC[C@H]1C(=O)N1CCC[C@H]1C(=O)N[C@@H](CCCNC(=N)N)C(=O)N1CCC[C@H]1C(=O)N[C@H](C(=O)N(C)[C@@H](CCCNC(=N)N)C(N)=O)C(C)C [analog 7, mR20] (H-[Ac6c]RPDKPRPYLPRPRPPRPV[NMeR]-NH2; N-terminus assumed)	14.5 ± 0.1			
CC(C)C[C@H](NC(=O)[C@@H]1CCCN1C(=O)[C@H](CCCNC(=N)N)NC(=O)[C@@H]1CCCN1C(=O)[C@H](CCCNC(=N)N)NC(=O)[C@@H]1CCCN1C(=O)[C@@H]1CCCN1C(=O)[C@H](CCCNC(=N)N)NC(=O)[C@@H]1CCCN1C(=O)[C@@H](NC(=O)[C@H](CCCNC(=N)N)NC(=O)C1(N)CCCCC1)C(C)C)C(=O)N[C@@H](Cc1ccc(O)cc1)C(=O)N1CCC[C@H]1C(=O)N[C@@H](CCCNC(=N)N)C(=O)N1CCC[C@H]1C(=O)N[C@@H](CCCCN)C(=O)N[C@@H](CC(=O)O)C(=O)N1CCC[C@H]1C(=O)N[C@@H](CCCNC(=N)N)C(N)=O [analog 8, reverse] (H-[Ac6c]RVPRPPRPRPLYPRPKDPR-NH2; N-terminus assumed)	>100	no activity		
A3-APO			degradation at positions Pro6-Arg7 and Val19-Arg20	
Chex1-Arg20 (Chex-RPDKPRPYLPRPRPPRPVR-NH2; reading uncertain) [analog 1, de novo designed proline-rich antimicrobial peptide, Chex-…-NH2]				0.8 ± 0.1
